Each structure is given as a SMILES string.

The nature of the first data set: 48 hr solubility of benzotriazole UV absorbers in solubilizing monomers.
Settings: not given
Here is the method: The solubility of the benzotriazole 2-(2-hydroxy-3-alpha-cumyl-5-t-octylphenyl)-5-trifluoromethylbenzotriazole (CGL-139, experimentally available from Ciba Specialty Chemicals) in various solubilizing monomers was determined. Mixtures were made up using 5% increments of the benzotriazole. The benzotriazole and solubilizing monomer to be tested were mixed with gentle heating to 70° C. in a water bath until dissolved, then allowed to stand for 48 hours at room temperature. After 48 hours, each mixture was inspected for benzotriazole precipitation. Solubility was determined to within 5% by recording the highest concentration tested for which there was no precipitation and the lowest concentration for which precipitation occurred. […] Where reported in the literature, the Tg of a polymer made entirely of the tested solubilizing monomer is also given.
Using the method of Example 1, the solubility of a variety of benzotriazoles in isobornyl acrylate was determined. The formula for each of the tested benzotriazoles is set out above. These benzotriazoles can also be represented using the general structure 2-(2-hydroxy-3-R2-5-R3-phenyl)-5-R1-benzotriazole. For CGL-139, R1=trifluoromethyl, R2=alpha-cumyl, and R3=t-octyl. For TINUVIN 928, R1=H, R2=alpha-cumyl, and R3=t-octyl. For Tinuvin 328, R1=H, R2=t-amyl, and R3=t-amyl. For TINUVIN 327, R1=chloro, R2=t-butyl, and R3=t-butyl. For TINUVIN 326, R1=chloro, R2=t-butyl, and R3=methyl. For both TINUVIN 234 and TINUVIN 900, R1=H, R2=alpha-cumyl, and R3=alpha-cumyl.
On to `CC(C)(C)CC(C)(C)c1cc(-n2nc3ccc(C(F)(F)F)cc3n2)c(O)c(C(C)(C)c2ccccc2)c1` [CGL-139, 2-(2-hydroxy-3-alpha-cumyl-5-t-octylphenyl)-5-trifluoromethylbenzotriazole], for which the “Benzotriazole 48 hr Solubility, wt. %” value is given as 25-30% wt. %.

Turning to `CC(C)(C)CC(C)(C)c1cc(-n2nc3ccccc3n2)c(O)c(C(C)(C)c2ccccc2)c1` [TINUVIN 928, 2-(2-hydroxy-3-alpha-cumyl-5-tert-octylphenyl)-2H-benzotriazole], the “Benzotriazole 48 hr Solubility, wt. %” value is on record as 30-35% wt. %.

Consider `Cc1cc(-n2nc3ccc(Cl)cc3n2)c(O)c(C(C)(C)C)c1` [TINUVIN 326, 5-chloro-2-(2-hydroxy-3-tert-butyl-5-methylphenyl)-2H-benzotriazole], for which the “Benzotriazole 48 hr Solubility, wt. %” value is 5-10% wt. %.

Staying with this data set, now noted: in isobornyl acrylate; method of Example 1, 48 hours at room temperature.
`CC(C)(C)c1cc(-n2nc3ccc(Cl)cc3n2)c(O)c(C(C)(C)C)c1` [TINUVIN 327, 5-chloro-2-(2-hydroxy-3,5-di-tert-butylphenyl)-2H-benzotriazole]: the “Benzotriazole 48 hr Solubility, wt. %” value was 5-10% wt. %.

For `CC(C)(c1ccccc1)c1cc(-n2nc3ccccc3n2)c(O)c(C(C)(C)c2ccccc2)c1` [TINUVIN 900, 2-(2-hydroxy-3,5-di-alpha-cumylphenyl)-2H-benzotriazole], the “Benzotriazole 48 hr Solubility, wt. %” value was 0-5% wt. %.

As to `CCC(C)(C)c1cc(-n2nc3ccccc3n2)c(O)c(C(C)(C)CC)c1` [TINUVIN 328, 2-(2-hydroxy-3,5-di-tert-amylphenyl)-2H-benzotriazole], the “Benzotriazole 48 hr Solubility, wt. %” value is 20-25% wt. %.

Source of the values: patent publication US7507776B2, “Outdoor weatherable photopolymerizable coatings” (3M Innovative Properties Company, priority 2003, dated 2009).
